Results published in PubChem BioAssay AID256 (DTP/NCI, 2004).
Values joined by “and” are separate entries in the source; they are usually repeats but may differ in a detail not shown here. Identical values can stand only once. Inconclusive results and toxic doses are left out. Rule for the calls: active = survival T/C of 150% or more; inactive = T/C below 125% in these data.

Tested on: CD2F1 mice, L1210 leukemia ip, survival T/C
Assay: NCI In Vivo Anticancer Drug Screen. Data for tumor model L1210 Leukemia (intraperitoneal) in CD2F1 (CDF1) mice
Settings: higher = longer survival
Summary of the method: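 Read-out first: treated-group measurement over vehicle-control measurement, expressed as a ratio. Animals bore a transplanted tumor line and were dosed with compound or vehicle.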

[1] = endpoint: mean survival time, dose: 50.0 mg/kg/injection, schedule: Q01DX009 (ip), vehicle: saline with Tween-80
[2] = endpoint: mean survival time, dose: 100.0 mg/kg/injection, schedule: Q01DX009 (ip), vehicle: saline with Tween-80
[3] = endpoint: mean survival time, dose: 100.0 mg/kg/injection, schedule: Q04DX003 (ip), vehicle: saline with Tween-80
[4] = endpoint: mean survival time, dose: 100.0 mg/kg/injection, schedule: Q01DX001 (ip), vehicle: saline with Tween-80
[5] = endpoint: mean survival time, dose: 200.0 mg/kg/injection, schedule: Q01DX001 (ip), vehicle: saline with Tween-80
[6] = endpoint: mean survival time, dose: 100.0 mg/kg/injection, schedule: Q04DX002 (ip), vehicle: saline
[7] = endpoint: mean survival time, dose: 200.0 mg/kg/injection, schedule: Q04DX002 (ip), vehicle: saline
[8] = endpoint: mean survival time, dose: 200.0 mg/kg/injection, schedule: Q01DX009 (ip), vehicle: saline with Tween-80
[9] = endpoint: mean survival time, dose: 400.0 mg/kg/injection, schedule: Q01DX009 (ip), vehicle: saline with Tween-80
[10] = endpoint: mean survival time, dose: 200.0 mg/kg/injection, schedule: Q04DX003 (ip), vehicle: saline with Tween-80
[11] = endpoint: mean survival time, dose: 400.0 mg/kg/injection, schedule: Q04DX003 (ip), vehicle: saline with Tween-80

Measured: T/C

CS(=O)(=O)OCCCCOS(C)(=O)=O
inactive: endpoint: mean survival time, dose: 3.75 mg/kg/injection, schedule: Q01DX009 (ip), vehicle: saline with Tween-80 92 % of control | endpoint: mean survival time, dose: 3.75 mg/kg/injection, schedule: Q03HX008 (ip), vehicle: saline with Tween-80 96 % of control | endpoint: mean survival time, dose: 3.75 mg/kg/injection, schedule: Q03HX016 (ip), vehicle: saline with Tween-80 94 % of control | endpoint: mean survival time, dose: 3.75 mg/kg/injection, schedule: Q03HX024 (ip), vehicle: saline with Tween-80 104 % of control | endpoint: mean survival time, dose: 7.5 mg/kg/injection, schedule: Q01DX009 (ip), vehicle: saline with Tween-80 102 % of control | endpoint: mean survival time, dose: 7.5 mg/kg/injection, schedule: Q03HX008 (ip), vehicle: saline with Tween-80 100 % of control | endpoint: mean survival time, dose: 7.5 mg/kg/injection, schedule: Q03HX016 (ip), vehicle: saline with Tween-80 98 % of control | endpoint: mean survival time, dose: 7.5 mg/kg/injection, schedule: Q03HX024 (ip), vehicle: saline with Tween-80 106 % of control | endpoint: mean survival time, dose: 12.5 mg/kg/injection, schedule: Q01DX001 (ip), vehicle: saline 98 % of control | endpoint: mean survival time, dose: 15.0 mg/kg/injection, schedule: Q01DX009 (ip), vehicle: saline with Tween-80 97 % of control | endpoint: mean survival time, dose: 15.0 mg/kg/injection, schedule: Q01DX009 (oral), vehicle: saline with Tween-80 97 % of control | endpoint: mean survival time, dose: 15.0 mg/kg/injection, schedule: Q03HX008 (ip), vehicle: saline with Tween-80 102 % of control | endpoint: mean survival time, dose: 15.0 mg/kg/injection, schedule: Q03HX016 (ip), vehicle: saline with Tween-80 98 % of control | endpoint: mean survival time, dose: 15.0 mg/kg/injection, schedule: Q03HX024 (ip), vehicle: saline with Tween-80 103 % of control | endpoint: mean survival time, dose: 25.0 mg/kg/injection, schedule: Q01DX001 (ip), vehicle: saline 102 % of control | endpoint: mean survival time, dose: 30.0 mg/kg/injection, schedule: Q01DX001 (ip), vehicle: saline with Tween-80 98 % of control | endpoint: mean survival time, dose: 30.0 mg/kg/injection, schedule: Q01DX009 (ip), vehicle: saline with Tween-80 100 % of control | endpoint: mean survival time, dose: 30.0 mg/kg/injection, schedule: Q01DX009 (oral), vehicle: saline with Tween-80 94 % of control | endpoint: mean survival time, dose: 30.0 mg/kg/injection, schedule: Q03HX008 (ip), vehicle: saline with Tween-80 107 % of control | endpoint: mean survival time, dose: 30.0 mg/kg/injection, schedule: Q03HX016 (ip), vehicle: saline with Tween-80 98 % of control | endpoint: mean survival time, dose: 30.0 mg/kg/injection, schedule: Q03HX024 (ip), vehicle: saline with Tween-80 107 % of control | endpoint: mean survival time, dose: 30.0 mg/kg/injection, schedule: Q04DX003 (ip), vehicle: saline with Tween-80 101 % of control | endpoint: mean survival time, dose: 30.0 mg/kg/injection, schedule: Q08DX002 (ip), vehicle: saline with Tween-80 98 % of control | endpoint: mean survival time, dose: 50.0 mg/kg/injection, schedule: Q01DX001 (ip), vehicle: saline 101 % of control | endpoint: mean survival time, dose: 60.0 mg/kg/injection, schedule: Q01DX001 (ip), vehicle: saline with Tween-80 104 % of control | endpoint: mean survival time, dose: 60.0 mg/kg/injection, schedule: Q01DX001 (oral), vehicle: saline with Tween-80 100 % of control | endpoint: mean survival time, dose: 60.0 mg/kg/injection, schedule: Q04DX003 (ip), vehicle: saline with Tween-80 96 % of control | endpoint: mean survival time, dose: 60.0 mg/kg/injection, schedule: Q08DX002 (ip), vehicle: saline with Tween-80 98 % of control | endpoint: mean survival time, dose: 100.0 mg/kg/injection, schedule: Q01DX001 (ip), vehicle: saline 112 % of control | endpoint: mean survival time, dose: 120.0 mg/kg/injection, schedule: Q01DX001 (ip), vehicle: saline with Tween-80 104 % of control | endpoint: mean survival time, dose: 120.0 mg/kg/injection, schedule: Q08DX002 (ip), vehicle: saline with Tween-80 97 % of control | endpoint: mean survival time, dose: 240.0 mg/kg/injection, schedule: Q08DX002 (ip), vehicle: saline with Tween-80 100 % of control

NC1CCCCC1CC1CCCCC1 (stereo not given)
inactive: endpoint: mean survival time, dose: 25.0 mg/kg/injection, schedule: Q01DX009 (ip), vehicle: saline with Tween-80 106 % of control | endpoint: mean survival time, dose: 25.0 mg/kg/injection, schedule: Q04DX003 (ip), vehicle: saline with Tween-80 97 % of control | [1] 103 % of control | endpoint: mean survival time, dose: 50.0 mg/kg/injection, schedule: Q04DX003 (ip), vehicle: saline with Tween-80 97 % of control | [2] 95 % of control | [3] 98 % of control

O=c1c2ccccc2sc2c1ccc1c2ccc2c(=O)c3ccccc3sc21
inactive: endpoint: mean survival time, dose: 50.0 mg/kg/injection, schedule: Q01DX009 (ip), vehicle: Klucel (hydroxypropylcellulose) (HPC) 104 % of control | endpoint: mean survival time, dose: 100.0 mg/kg/injection, schedule: Q01DX009 (ip), vehicle: Klucel (hydroxypropylcellulose) (HPC) 98 % of control | endpoint: mean survival time, dose: 200.0 mg/kg/injection, schedule: Q01DX009 (ip), vehicle: Klucel (hydroxypropylcellulose) (HPC) 98 % of control

CC1(C)N=C(N)N=C(N)N1c1ccc(/C=C/C(=O)Nc2cccc(S(=O)(=O)F)c2)cc1
inactive: [4] 89 % of control | [5] 95 % of control | endpoint: mean survival time, dose: 400.0 mg/kg/injection, schedule: Q01DX001 (ip), vehicle: saline with Tween-80 92 % of control

CC(C)C1OCC(C)(C)C(C(C)C)O1 (stereo not given)
inactive: [6] 107 % of control | [7] 110 % of control | endpoint: mean survival time, dose: 400.0 mg/kg/injection, schedule: Q04DX002 (ip), vehicle: saline 96 % of control

CC(C)(C)OC(=O)NC(CCCCNC(=O)C(F)(F)F)C(=O)O (stereo not given)
inactive: [2] 102 % of control | [8] 93 % of control | [9] 87 % of control

CCOC(=O)c1nc(SC)n(C)c1C(=O)OCC
inactive: endpoint: mean survival time, dose: 100.0 mg/kg/injection, schedule: Q04DX002 (ip), vehicle: saline with Tween-80 94 % of control | endpoint: mean survival time, dose: 200.0 mg/kg/injection, schedule: Q04DX002 (ip), vehicle: saline with Tween-80 105 % of control

CCOC(=O)C(C=O)(NC(=O)c1ccccc1)OCC (stereo not given)
inactive: [2] 100 % of control | [8] 105 % of control | [9] 96 % of control

c1ccc([P+](c2ccccc2)(c2ccccc2)c2ccccc2)cc1
inactive: endpoint: mean survival time, dose: 0.63 mg/kg/injection, schedule: Q01DX009 (ip), vehicle: saline 108 % of control | endpoint: mean survival time, dose: 1.25 mg/kg/injection, schedule: Q01DX009 (ip), vehicle: saline 111 % of control | endpoint: mean survival time, dose: 2.5 mg/kg/injection, schedule: Q01DX009 (ip), vehicle: saline 117 % of control | endpoint: mean survival time, dose: 5.0 mg/kg/injection, schedule: Q01DX009 (ip), vehicle: saline 122 % of control

CC(C)(CO)CCCCCCC(C)(C)CO
inactive: [1] 98 % of control | [2] 106 % of control | [8] 106 % of control

Clc1nnc(-c2ccccc2)s1
inactive: [3] 101 % of control | [10] 91 % of control

O=C(CC(=O)c1ccccc1F)Nc1ccc([N+](=O)[O-])cc1
inactive: [2] 90 % of control | [3] 96 % of control | [8] 93 % of control | [10] 95 % of control | [9] 88 % of control | [11] 97 % of control

CS(=O)(=O)N1CCCCC1
inactive: endpoint: mean survival time, dose: 75.0 mg/kg/injection, schedule: Q01DX001 (ip), vehicle: saline 100 % of control

CCCC(=O)c1ccc(C)cc1
inactive: [3] 97 % of control | [11] 88 % of control

CCCCCCCCCCCC[Si](CCCCCCCCCCCC)(c1ccccc1)c1ccccc1
inactive: [3] 103 % of control | [10] 93 % of control | [11] 93 % of control

COc1cccc2c1C(=O)c1c(O)c3c(c(O)c1C2=O)C[C@@](O)(C(=O)CO)C[C@@H]3OC1CC(N(C)C)C(O)C(C)O1 (stereo not given in full)
inactive: endpoint: mean survival time, dose: 0.25 mg/kg/injection, schedule: Q01DX009 (ip), vehicle: saline 118 % of control and 108 % of control | endpoint: mean survival time, dose: 0.5 mg/kg/injection, schedule: Q01DX009 (ip), vehicle: saline 117 % of control and 121 % of control | endpoint: mean survival time, dose: 1.0 mg/kg/injection, schedule: Q01DX009 (ip), vehicle: saline 115 % of control and 124 % of control | endpoint: mean survival time, dose: 2.0 mg/kg/injection, schedule: Q01DX009 (ip), vehicle: saline 97 % of control and 102 % of control

O=C(O)CC(=O)O.[NH-]CC(O)C[NH-].[Pt+2]
inactive: endpoint: median survival time, dose: 20.0 mg/kg/injection, schedule: Q04DX003 (ip), vehicle: water 96 % of control | endpoint: median survival time, dose: 40.0 mg/kg/injection, schedule: Q04DX003 (ip), vehicle: water 110 % of control

CC1CC(C(=O)O)C(S(N)(=O)=O)C1 (stereo not given)
inactive: endpoint: mean survival time, dose: 50.0 mg/kg/injection, schedule: Q04DX002 (ip), vehicle: saline 97 % of control | [6] 108 % of control | [7] 108 % of control

CCCCCCCCCCCCCCCC[N+]1(CCC)CCSCC1
inactive: [4] 102 % of control | [5] 110 % of control

CCN(C(=O)c1ccc(C(=O)N(CC)c2ccccc2)cc1)c1ccccc1
inactive: [2] 95 % of control | [8] 101 % of control | [9] 90 % of control
